Laboratory results taken from patent US20190008919A1, “ETA RECEPTOR ANTAGONISTS AND METHODS OF USING THE SAME TO TREAT CARDIOVASCULAR DISORDERS AND DISEASE” (priority 2017, published 2019).
Non-standard residues stand in square brackets, D forms with d. Residues, ends and D or L forms follow the SMILES beside them.

Experiments:
[1] = tested on: aortic stiffening-induced hypertension rat model; experiment: Pressure, pulse wave velocity and peripheral flow measurement in aortic NCR (aortic stiffening-induced hypertension) rats; assay type: in vivo, Wistar rats
Description: (§1) Twenty seven Wistar rats at age of 17-18 weeks were randomly divided into three groups. Group 1 (n=10) underwent aortic NCR for 12 weeks and was terminated at the end of 12 weeks. Group 2 (n=9) underwent aortic NCR for 12 weeks, then received continuous BQ-123 infusion for 3 weeks. The animals were terminated at the end of 15 weeks. Group 3 (n=8) was used as the sham-operated control for groups 1 and 2. All animal experiments were performed in accordance with national and local ethical guidelines, including the Institute of Laboratory Animal Research guidelines, Public Health Service policy, the Animal Welfare Act, as approved by Institutional Animal Care and Use Committee at California Medical Innovations Institute, San Diego.
Animals were anesthetized with 1-2% isoflurane by air inhalation. A pressure catheter (Mikro-tip SPR-407, Millar Instruments, Houston, Tex.,) was inserted in the aortic arch (proximal site) via the right carotid artery. Heparin (200 U/ml) was used to prevent blood clots in the vessels. Another pressure transducer (Mikro-tip SPR-671) was advanced retrogradely into the abdominal aorta (distal site) via the right femoral artery. The central and peripheral aortic blood pressure waveforms were recorded from these two locations simultaneously during the procedure. A branch (400˜500 μm in diameter) of the left femoral artery was exposed carefully. A flow probe (0.5 mm ID) connected to a flow meter (Transonic systems, Ithaca, N.Y.) was then placed around it and local flow rate was recorded for at least 30 minutes. Following the measurement of blood pressure, the small cuts for cannulation on the carotid and femoral arteries were repaired by 11-0 sutures to restore flow.
A laparotomy (about 3.0 cm) was performed. The distal abdominal aorta between renal and common iliac artery was carefully exposed and tissue glue (cyanoacrylate formulation, Dermabond, Ethicon, NJ) was coated over a length of the aorta. After allowing 5-10 minutes for the glue to harden, a stiff coating formed and covered the anterior and bilateral sides of the aorta with an axial length of 3.0-3.5 cm. The sham group underwent an identical surgical procedure, but without application of glue on the aorta (i.e., the same amount of glue was left near the aorta area with no direct contact with the aorta).
(§2) Rats in group 2 received continuous BQ-123 infusion (1 mg/kg/day) for 21 days through Osmotic minipump implantation after 12 weeks of aortic NCR. BQ-123 (Peptides International Inc., Louisville, Ky.) was dissolved in saline containing 0.5% dimethyl sulphoxide (DMSO). The Osmotic minipump (model 2002, Durect Corporation, CA) was subcutaneously implanted on the side of abdomen in rats. Sham rats received continuous saline infusion through Osmotic minipumps for 21 days.
Pulse wave velocity (PWV) calculation is based on the difference in arrival times of the pressure wave at the proximal (aorta arch) and distal (abdominal aorta) locations. Since the pressure transducer is visible on radiographs, the propagation distance between the proximal and distal site was obtained by imaging the animal with the two transducers implantation under an X-ray machine (Philips Fluoroscopy System, FIG. 1). PWV (m/s) was calculated by dividing the propagation distance by the difference among the two arrival times (transit time).
The reverse to forward flow ratio (indicative of the extent of peripheral flow reversal) in peripheral small artery was calculated as: R/F ratio=Qrev/Qfwd×100(%), where Qrev and Qfwd are the reverse and forward peak flow rate, respectively (as shown in FIG. 3A). […]

[2] = tested on: peripheral small arteries; experiment: Endothelial function of peripheral small arteries (isovolumic myograph, ex vivo) after in vivo treatment; set-up: species or system Wistar rats
Description: as §2
(§3) After measurement of pressure and flow from a branch of femoral artery, water-resistant carbon particles were used to mark the same vessel segment (400˜500 μm in diameter) to measure axial changes as described in a publication by Guo et al. The external geometry of the arterial segment was photographed to obtain the outer diameter and in vivo axial length with the aid of a dissecting microscope. The arterial segment was than harvested for endothelial function and mechanical testing and histological analysis. The heart was harvested to calculate the wet weight.
An isovolumic myograph recently developed by our group was used to evaluate the endothelium-dependent vasorelaxation. The small peripheral arterial segment was cannulated on both ends in a physiological bath with HEPES physiologic saline solution (HEPES-PSS, concentration in mmol/l: 142 NaCl, 4.7 KCl, 2.7 sodium HEPES, 3 HEPES acid, 0.15 NaHPO4, 1.17 MgSO4, 2.79 CaCl^2, and 5.5 glucose, solution gassed by 95% O2 plus 5% CO2) and stretched to in situ length. The pressure and external diameter were measured with a pressure transducer (Mikro-Tip SPR-524; Millar Instruments) and a digital diameter tracking (DiamTrak v3+; Australia), respectively. The vessel segment was pre-constricted with phenylephrine (PE) by a series of doses (10^−10 to 10^−5 mol/L in the PSS), and then relaxed with acetylcholine (ACh) by a series of doses: 10^−10 to 10^−5 mol/L. The endothelium-independent relaxation to sodium nitroprusside (SNP, 10^−5 mol/L) was measured to verify the sensitivity of vascular smooth muscle to NO. The overall contractility of vessel was tested with potassium chloride (KCl) at 60 mmol/L. Contraction was expressed as percentage of the response to KCl. Relaxation was expressed as percentage of pre-contraction to PE.
Results were shown as mean±standard error of mean (mean±SEM). The significance of the differences between two groups was evaluated by either t-test or One-way ANOVA. For each dose-response curve to agents, the maximum effect (Emax) and bolus dose that produced half-maximal relaxation or contraction (expressed as pED50) were obtained by fitting the experimental data with a sigmoidal dose response curve. A least-squares fitting function, FindFit (Wolfram Mathematica software, Illinois, USA) was used. Significant differences among the three groups for dose-dependent curves (FIGS. 10B and 7A) were determined by Two-way ANOVA (SigmaStat, California, USA). The results were considered statistically significant when P<0.05 (2-tailed).

[3] = tested on: peripheral small arteries; experiment: Mechanical tests and morphometry of peripheral small arteries; assay type: in vivo, Wistar rats
Description: as §2, §3
The peripheral arterial segment was cannulated on both ends and fully relaxed in Ca^2+ free HEPES-PSS. The arterial segment was preconditioned with five cyclic changes in pressure from 0 to 140 mmHg. The pressure was then increased in 20 mmHg step increments from 20 to 140 mmHg in a staircase manner. The passive pressure-diameter relation was recorded. After the mechanical testing, the vessel segment was cut transversely into three or four rings. Each ring was photographed in the no-load state and then cut radially by a scissor to reveal the zero-stress state. The cross section of each sector was photographed 30 minutes after the radial cut (details in Guo et al.). The morphological measurements of the in vitro axial length, inner and outer circumference, wall thickness (WT), and area in the no-load and zero-stress state were made from the images using a morphometric analysis system (SigmaScan).
The loaded inner radius of vessel was determined from the incompressibility assumption. The incompressibility condition for a cylindrical vessel can be expressed as:
where ro and ri are the outer and inner radii at the loaded state, respectively. λZ=l/lo is the stretch ratio in the axial direction where l and lo are the vessel length in the loaded and no-load state, respectively and Ao is the wall area in the no-load state. The wall thickness, WT at the loaded state was computed as the difference between the outer and inner radius of the vessel at various pressures as:
The volume compliance (CV) of the artery was determined by the slope of the pressure-volume relationship; i.e., CV=ΔV/ΔP. […] The normalized CSA compliance (CCSA) was determined similarly as CCSA=ΔCSA/(ΔP·CSA) at the physiological pressure as described in our previous publication.

[4] = tested on: peripheral small arteries; experiment: Elastin and collagen contents by multiphoton microscopy; assay type: in vivo, Wistar rats
Description: as §2
The elastin and collagen in small peripheral arteries were imaged by using a Multiphoton microscope (MPM) as described by Huan et al. Briefly, the arterial segment was fixed with 4% paraformaldehyde in phosphate buffer for 4 hours. The vessel was then transferred to a cryomold containing OCT embedding medium, and frozen in liquid nitrogen. Frozen transverse sections (7 μm) were cut onto glass slide and visualized by the MPM with a combined SHG/TPEF setup (Zeiss LSM 710 NLO). Serial optical sections were simultaneously captured by using the 520 nm line for elastin and the 415 nm line for collagen. All the images were taken under identical conditions of laser intensity, brightness, and contrast. Fluorescence intensity values were used as estimates of elastin and collagen concentration and quantitatively analyzed by Image J.

ET-1 = experiment: Serum ET-1 level (ELISA); assay type: in vivo, Wistar rats; details: FIG. 6; not significantly different from the sham
Description: as §2
Blood samples were collected in ethylenediaminetetraacetic acid (EDTA) tubes for all experimental rats. After centrifugation at 5000 rpm and 4° C. for 15 min, serum was immediately separated and stored at −80° C. until analysis. The circulating level of ET-1 in serum was measured by ELISA kit (R&D system, MN).

left ventricle = experiment: Heart and left ventricle weights; assay type: in vivo, Wistar rats; details: compared to sham
Description: as §2, §3

Body weight = assay type: in vivo, Wistar rats; details: Exp rats, 12 weeks aortic NCR then BQ-123 1 mg/kg/day continuous infusion 3 weeks; mean ± SEM
Description: as §1, §2

[5] = Exp rats, 12 weeks aortic NCR then BQ-123 1 mg/kg/day infusion 3 weeks, mean ± SEM
[6] = branch of femoral artery, Exp rats, 12 weeks aortic NCR then BQ-123 infusion 3 weeks, mean ± SEM

CC(C)C[C@@H]1NC(=O)[C@@H](C(C)C)NC(=O)[C@@H]2CCCN2C(=O)[C@@H](CC(=O)O)NC(=O)[C@@H](Cc2c[nH]c3ccccc23)NC1=O [BQ-123, 2-[(3R,6R,9S,12R,15S)-6-(1H-indol-3-ylmethyl)-9-(2-methylpropyl)-2,5,8,11,14-pentaoxo-12-propan-2-yl-1,4,7,10,13-pentazabicyclo[13.3.0]octadecan-3-yl]acetic acid] (cyclo(L[dW][dD]P[dV]))
Central aortic blood pressure, Diastolic pressure [1, 5]: 94.8 ± 3.2 mmHg
Central aortic blood pressure, Mean pressure [1, 5]: 115.0 ± 3.8 mmHg
Central aortic blood pressure, Pulse pressure [1, 5]: 38.5 ± 1.8 mmHg
Central aortic blood pressure, Systolic pressure [1, 5]: 133.3 ± 3.9 mmHg
Heart rate [1, 5]: 353.0 ± 6.9 beats/min
PWV [1, 5]: 4.1 ± 0.3 m/s
Peripheral aortic blood pressure, Diastolic pressure [1, 5]: 87.6 ± 3.5 mmHg
Peripheral aortic blood pressure, Mean pressure [1, 5]: 108.0 ± 4.5 mmHg
Peripheral aortic blood pressure, Pulse pressure [1, 5]: 45.8 ± 2.1 mmHg
Peripheral aortic blood pressure, Systolic pressure [1, 5]: 133.4 ± 5.1 mmHg
wall shear stress (WSS) in peripheral small arteries ([1]; FIG. 3B, after 3 weeks BQ-123 in NCR rats): returned to the sham level
Reverse/forward flow ratio ([1]; Qrev/Qfwd×100, Exp rats, 12 weeks aortic NCR then BQ-123 infusion 3 weeks, mean ± SEM): 7.6 ± 1.4 %
Peripheral flow rate, Forward flow [1, 6]: 0.34 ± 0.04 mL/min
Peripheral flow rate, Mean flow [1, 6]: 0.099 ± 0.008 mL/min
Peripheral flow rate, Reverse flow [1, 6]: -0.026 ± 0.007 mL/min
endothelium-dependent vasodilation in response to acetylcholine (dose-response curve) ([2]; FIG. 7A, vs aortic NCR group, p<0.05, 2-way ANOVA): totally recovered
contractions to phenylephrine (PE) ([2]; FIG. 10B, vs sham and aortic NCR): did not affect this response
vascular contraction to potassium chloride (KCl) ([2]; KCl 60 mmol/L, among the 3 groups, FIG. 10C): no significant difference
maximal endothelium-independent relaxation to sodium nitroprusside (SNP) ([2]; SNP 10^−5 mol/L, arteries of BQ-123 treated NCR rats (sham 96%, NCR 74%)): 98%
Emax ([2]; acetylcholine concentration-response curve, PE pre-contracted peripheral small arteries of BQ-123 treated NCR rats, mean ± SEM): 88.5 ± 7.9%
Phenylephrine Emax (%) ([2]; phenylephrine concentration-response curve, peripheral small arteries of BQ-123 treated NCR rats, mean ± SEM): 72.4 ± 6.3 negative log mol/L
wall thickness (WT, intima-media thickness) ([3]; compared to NCR group, not statistically significant, FIG. 4A): downward trend
wall thickness-to-radius (WTTR) ratio ([3]; compared to NCR group, not statistically significant, FIG. 4B): downward trend
normalized CSA compliance ([3]; compared with NCR group p=0.02, not fully restored vs sham (p=0.06), FIG. 4C): significantly increased
outer diameter of the peripheral small arteries ([3]; sham, NCR and BQ-123 groups, FIG. 10A): no changes
total collagen content of peripheral arteries ([4]; FIG. 5B, after 3 weeks BQ-123): returned to normal levels
elastin to collagen ratio ([4]; FIG. 5C, after 3 weeks of treatment): restored to normal levels
total elastin contents ([4]; between NCR, BQ-123 treatment and sham groups): No difference
serum ET-1 level (ET-1): restored to pre-intervention level
wet weights of the hearts (left ventricle): did not change
LV weight/heart weight ratio (LV/HW) (left ventricle; p<0.05, FIG. 2): significant increase
Body Weight (Body weight): 641.3 ± 18.9 g
